Values of other authors as cited in US20220193441A1, “ENERGY AUGMENTATION STRUCTURES, EMITTERS OR COLLECTORS, FOR USE IN NON-INVASIVE IN-SITU PHOTOBIOMODULATION” (IMMUNOLIGHT, LLC, priority 2019, published 2022).

Assays:
tumors = details: in vivo
[1] = tested on: epidermal growth factor receptor; details: higher UVA light doses, with versus without trimethyl psoralen
[2] = clinical use

Structure (SMILES): CC(=O)[O-].CC(=O)[O-].CCc1c(CC)c2cc3nc(cnc4cc(OCCOCCOCCOC)c(OCCOCCOCCOC)cc4ncc4nc(cc1[n-]2)C(CCCO)=C4C)C(C)=C3CCCO.O.[Lu+3] [Lutetium texaphryin, Motexafin lutetium]
- selectivity for tumors compared to normal tissues (tumors): one of the greatest reported selectivities for tumors

Structure (SMILES): Cc1cc2cc3c(C)cc(=O)oc3c(C)c2o1 [trimethyl psoralen]
- inhibition of 125I-EGF specific binding [1]: higher efficiency

Structure (SMILES): Oc1cccc(-c2c3nc(c(-c4cccc(O)c4)c4ccc([nH]4)c(-c4cccc(O)c4)c4nc(c(-c5cccc(O)c5)c5ccc2[nH]5)CC4)C=C3)c1 [Foscan, Tetra (m-hydroxyphenyl) chlorin]
- duration of skin photosensitivity [2]: approximately 2 weeks
